Experiment [1] is described as follows: lipid peroxidation inhibition assay. In kind it is biochemical. The note with it: for LPA, lipid peroxidation inhibition activity: (caffeic acid IC50/sample IC50) × 1000, average ± S.D., text prints mg caffeic acid/g. The source says: The previously described method was used to investigate the lipid peroxidation inhibition potency. […] The IC50 value was found as the effective sample concentration gave 50% reduction of optical density of initial solution. The value of lipid peroxidation inhibition (I) was found as a ratio of caffeic acid IC50 to sample IC50 [I = (IC50^Caffeic acid/ IC50^Sample) × 1000] and expressed as mg of caffeic acid in 1 g of sample. Values are expressed as mean obtained from five independent experiments.

Experiment [2] addresses T1, α-amylase from Aspergillus oryzae (Aspergillus oryzae, UniProt P0C1B3).
T1 construct: purchased Sigma-Aldrich 10065
The experiment can be described thus: α-amylase inhibiting potential, spectrophotometric assay. The note with it: (acarbose IC50/sample IC50) × 1000, average ± S.D., text prints mg acarbose/g. In kind it is biochemical. The procedure:
(§1) The α-amylase inhibiting potential and α-glucosidase inhibiting potential were performed using spectrophotometric assays. The α-amylase from Aspergillus oryzae (3 U/mL) and α-glucosidase from Saccharomyces cerevisae (0.5 U/mL) were used as […]. […] Values are expressed as mean obtained from six independent experiments.

Experiment [3] can be described thus: superoxide anion radical scavenging assay. In kind it is biochemical. As to conditions: for O2^-, superoxide anion-radical scavenging activity: (quercetin IC50/sample IC50) × 1000, average ± S.D., text prints mg quercetin/g. From the text: The known assay was used to determine superoxide anion radical scavenging activity. […] The IC50 value was found as the effective concentration at which superoxide anion radicals were scavenged by 50%. The value of antioxidant activity (A^O2•) against superoxide anion radicals was found as a ratio of quercetin IC50 to sample IC50 [A^O2• = (IC50^Quercetin/ IC50^Sample) × 1000] and expressed as mg of quercetin in 1 g of sample. Values are expressed as mean obtained from five independent experiments.

Experiment [4] in a line: HPLC-DAD assay coupled with pre-chromatographic reaction with DPPH radicals. In kind it is biochemical. As to conditions: peak in G. asclepiadea herb extract, HPLC-DAD 210 nm. The procedure:
Scavenging activity against DPPH radicals of gentian herb extracts were medium to high and varied from 147.57 mg trolox/g for G. paradoxa to 580.71 mg trolox/g for G. asclepiadea (Table 3). Extracts of gentian roots were characterized by mostly low activity, with activity values <10 mg trolox/g. […] Figure 9a,b show chromatograms of G. asclepiadea herb extract before and after reaction with DPPH radical. […]. Additional phenolic groups such as 2,3-dihydroxybenzoyl in iridoid structures of gelidoside (rindoside) and trifloroside can increase the radical scavenging potential, but not much (20.82–25.14 mg trolox/g).
Figure 9 HPLC-DAD chromatograms (210 nm) of G. asclepiadea herb extract before (a) and after (b) pre-chromatographic reaction with DPPH radicals and G. gelida roots extract before (c) and after (d) pre-chromatographic reaction with DPPH radicals. Zone of compounds numbered as follows: i—loganic acid; ii—swertiamarin; iii—isoorientin-2″-O-glucoside; iv—gentiopicroside; v—mangiferin; vi—isovitexin-2″-O-glucoside; vii—isoorientin; viii—saponarin; ix—isovitexin; x—luteolin-7-O-glucoside; xi—apigenin-7-O-glucoside; xii—gentiopicroside-6″-O-glucoside; xiii—gelidoside (rindoside); xiv—trifloroside. […] TEXT PRINTED IN THE PICTURE: (b) i: 3% | (b) iii: 72% | (b) iv: 5% | (b) v: 98% | (b) vii: 85% | (b) xi: 11% | (d) iv: 5% | (d) xiii: 8% | (d) xiv: 5% DOUBTS OF THE COPYIST ABOUT THIS PICTURE: The picture prints no measure with the percentages; only the bare % values are copied. / Panel d, 8% (arrow): taken as peak xiii, with 5% taken as xiv; peaks xiii and xiv lie close together, so the assignment is not fully certain. / Panel b, 98% (arrow): taken as peak v, which lies on the shoulder of iv. / The percentages are printed under traces (b) and (d) but compare (a) with (b) and (c) with (d), so the panel choice is uncertain.

Experiment [5] concerns the target T2, α-glucosidase from Saccharomyces cerevisiae (Saccharomyces cerevisiae, UniProt P53341).
T2 construct: purchased Sigma-Aldrich G5003
Put plainly: α-glucosidase inhibiting potential, spectrophotometric assay. In kind it is biochemical. The note with it: (acarbose IC50/sample IC50) × 1000; average ± S.D.; text prints mg acarbose/g. The procedure:
as §1

Experiment [6] in a line: DPPH radical scavenging assay. In kind it is biochemical. The note with it: for DPPH, 2,2-diphenyl-1-picrylhydrazyl radical scavenging activity: (trolox IC50/sample IC50) × 1000, average ± S.D., text prints mg trolox/g. The procedure:
The 2,2-diphenyl-1-picrylhydrazyl (DPPH) radical scavenging activity was performed as described earlier. […] The IC50 value was found as the effective concentration at which DPPH radicals were scavenged by 50%. The value of antioxidant activity (A^DPPH) against DPPH radicals was found as a ratio of trolox IC50 to sample IC50 [A^DPPH = (IC50^Trolox/ IC50^Sample) × 1000] and expressed as mg of trolox in 1 g of sample. Values are expressed as mean obtained from five independent experiments.

For experiment [7] the following is noted: cited from earlier work.
On the set-up of experiment [8]: method as in doi:10.1016/j.indcrop.2015.04.013. As to conditions: cited from earlier work.
Details of experiment [9]: method as in doi:10.1016/j.indcrop.2015.04.013. The note with it: G. cruciata (Serbia) study; cited from earlier work.

Converted amounts (≈) assume the structure as drawn. Like-named read-outs stand apart in the source and are kept apart here. Marks after values point to notes of the source that are not given here. Some results are limits rather than exact numbers.

T2 sequence (P53341 whole entry): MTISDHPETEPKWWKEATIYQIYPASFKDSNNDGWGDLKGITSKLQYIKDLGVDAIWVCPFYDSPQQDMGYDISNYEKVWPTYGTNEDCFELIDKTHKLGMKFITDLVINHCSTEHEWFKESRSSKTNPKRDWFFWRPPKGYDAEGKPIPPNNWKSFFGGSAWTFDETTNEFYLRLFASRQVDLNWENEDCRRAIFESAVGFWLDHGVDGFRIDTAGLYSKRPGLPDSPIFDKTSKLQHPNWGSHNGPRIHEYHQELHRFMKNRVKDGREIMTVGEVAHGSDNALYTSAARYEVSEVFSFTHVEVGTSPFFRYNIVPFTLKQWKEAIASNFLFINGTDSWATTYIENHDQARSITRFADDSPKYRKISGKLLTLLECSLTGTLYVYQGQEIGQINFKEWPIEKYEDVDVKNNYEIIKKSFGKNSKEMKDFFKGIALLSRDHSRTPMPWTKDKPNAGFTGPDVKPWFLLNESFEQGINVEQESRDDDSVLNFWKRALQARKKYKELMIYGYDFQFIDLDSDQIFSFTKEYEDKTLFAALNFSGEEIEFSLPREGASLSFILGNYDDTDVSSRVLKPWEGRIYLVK

For `O=C(O)/C=C/c1ccc(O)c(O)c1` [Caffeic acid, caffeic acid, reference compound], the “IC50, lipid peroxidation inhibition” value in experiment [1] (positive control) is listed as 58.96 ± 1.14 µg/mL (≈ 327 µM).

Turning to `C=C[C@@H]1C2=CCOC(=O)C2=CO[C@H]1O[C@@H]1O[C@H](CO)[C@@H](O)[C@H](O)[C@H]1O` [Gentiopicroside], the “αAIP, α-amylase inhibitory potential” value in experiment [2] is < 10.00 mg of acarbose per g of dry extract weight. For the same compound, the “O2^-, superoxide anion-radical scavenging activity” value in experiment [3] was < 10.00 mg of quercetin per g of dry extract weight. Also, the “percentage of peak area reduction after pre-chromatographic reaction with DPPH radicals” value (from here on “percentage of peak area reduction”) in experiment [4] is 3–5%. For the same compound, the “αGIP, α-glycosidase inhibitory potential” value in [5] is < 10.00 mg of acarbose per g of dry extract weight. In addition, the “LPA, lipid peroxidation inhibition activity” value in experiment [1] is given as < 10.00 mg of caffeic acid per g of dry extract weight. Also, the “DPPH, 2,2-diphenyl-1-picrylhydrazyl radical scavenging activity” value is recorded as < 10.00 mg of trolox per g of dry extract weight in experiment [6] and < 10 mg of trolox per g of dry extr in [6] (listed as gentiopicroside).

As to `O=c1cc(-c2ccc(O)c(O)c2)oc2cc(O)c([C@@H]3O[C@H](CO)[C@@H](O)[C@H](O)[C@H]3O)c(O)c12` [Isoorientin, Luteolin-6-C-Glc (isoorientin)], the “αAIP, α-amylase inhibitory potential” value in [2] is given as 1242.03 ± 44.71 ^xxviii mg of acarbose per g of dry extract weight. Further, in experiment [4], the “percentage of peak area reduction” value is 72–98%. The “αGIP, α-glycosidase inhibitory potential” value in experiment [5] is 811.10 ± 32.44 ^xxxvi mg of acarbose per g of dry extract weight.

For `O=c1cc(-c2ccc(O)cc2)oc2cc(O)c([C@@H]3O[C@H](CO)[C@@H](O)[C@H](O)[C@H]3O)c(O)c12` [Isovitexin], the “αAIP, α-amylase inhibitory potential” value in [2] is reported as 108.35 ± 3.79 ^xxii mg of acarbose per g of dry extract weight; in experiment [2] (listed as isovitexin), “medium”. Further, the “O2^-, superoxide anion-radical scavenging activity” value in experiment [3] is on record as 211.63 ± 4.20 ^xii mg of quercetin per g of dry extract weight. Besides, the “LPA, lipid peroxidation inhibition activity” value in experiment [1] is listed as 96.54 ± 3.73 ^xvii mg of caffeic acid per g of dry extract weight. In addition, the “DPPH, 2,2-diphenyl-1-picrylhydrazyl radical scavenging activity” value in experiment [6] is 425.11 ± 8.50 ^v mg of trolox per g of dry extract weight.

As to `C[C@@H]1[C@H]2[C@H](O[C@@H]3O[C@H](CO)[C@@H](O)[C@H](O)[C@H]3O)OC=C(C(=O)O)[C@H]2C[C@@H]1O` [Loganic Acid, Loganic acid], the “αAIP, α-amylase inhibitory potential” value in [2] is on record as < 10.00 mg of acarbose per g of dry extract weight. For the same compound, in experiment [3], the “O2^-, superoxide anion-radical scavenging activity” value was < 10.00 mg of quercetin per g of dry extract weight. In addition, the “percentage of peak area reduction” value in experiment [4] is on record as 3–5%. In addition, in experiment [5], the “αGIP, α-glycosidase inhibitory potential” value is given as < 10.00 mg of acarbose per g of dry extract weight. The “LPA, lipid peroxidation inhibition activity” value in experiment [1] is < 10.00 mg of caffeic acid per g of dry extract weight. For the same compound, the figures for the “DPPH, 2,2-diphenyl-1-picrylhydrazyl radical scavenging activity” value in experiment [6] and in experiment [6] (listed as loganic acid) were < 10.00 mg of trolox per g of dry extract weight and < 10 mg of trolox per g of dry extr, respectively.

In the case of `O=c1c2cc(O)c(O)cc2oc2cc(O)c([C@@H]3O[C@H](CO)[C@@H](O)[C@H](O)[C@H]3O)c(O)c12` [Mangiferin], the “αAIP, α-amylase inhibitory potential” value in [2] is recorded as 296.14 ± 10.36 ^xxiv mg of acarbose per g of dry extract weight. Further, the “O2^-, superoxide anion-radical scavenging activity” value is 927.07 ± 18.54 ^xiv mg of quercetin per g of dry extract weight in experiment [3] and 927.07 mg of quercetin per g of dry e in [3] (listed as mangiferin). The “percentage of peak area reduction” value in experiment [4] was 72–98%. In experiment [5], the “αGIP, α-glycosidase inhibitory potential” value is given as 1562.84 ± 62.48 ^xxxvii mg of acarbose per g of dry extract weight. The “LPA, lipid peroxidation inhibition activity” value in [1] is 522.14 ± 20.85 ^xx mg of caffeic acid per g of dry extract weight; in [1] (listed as mangiferin) it was 522.14 mg of caffeic acid per g of dr. The “DPPH, 2,2-diphenyl-1-picrylhydrazyl radical scavenging activity” value in experiment [6] was 3824.20 ± 76.48 ^viii mg of trolox per g of dry extract weight; in experiment [6] (listed as mangiferin) it was 3824.20 mg of trolox per g of dry extr.

In the case of `O=c1c(O)c(-c2ccc(O)c(O)c2)oc2cc(O)cc(O)c12` [Quercetin, quercetin, reference compound], in experiment [3] (positive control), the “IC50, superoxide anion radicals scavenged by 50%” value was found to be 21.74 ± 0.42 µg/mL (≈ 71.9 µM).

As to `O=C1O[C@H]([C@@H](O)CO)C(O)=C1O` [ascorbic acid], the “IC50 in the DPPH assay” value was 5.23 µg/mL (≈ 29.7 µM) in experiment [7] (Serbian species G. asclepiadea study) and 6.05 µg/mL (≈ 34.4 µM) in experiment [7] (Serbian species G. cruciata study).

Take `Cc1cc(C(C)(C)C)c(O)c(C(C)(C)C)c1` [butylated hydroxytoluene]: the “IC50, inhibitory activity toward lipid peroxidation” value in experiment [8] is 1.00 µg/mL (≈ 4.54 µM).

Turning to `O=C(O)c1cc(O)c(O)c(O)c1` [gallic acid], the “superoxide scavenging potential (IC50)” value in [9] was 360 µg/mL.

As to `O=c1cc(-c2ccc(O)c(O)c2)oc2cc(O)c([C@@H]3O[C@H](CO)[C@@H](O)[C@H](O)[C@H]3O[C@@H]3O[C@H](CO)[C@@H](O)[C@H](O)[C@H]3O)c(O)c12` [isoorientin-2″-O-glucoside, Isoorientin-2″-O-Glc], the “percentage of peak area reduction” value in experiment [4] was 72–98%.

Consider `Cc1c(C)c2c(c(C)c1O)CCC(C)(C(=O)O)O2` (stereo not drawn) [trolox, reference compound], for which the “IC50, DPPH radicals scavenged by 50%” value in experiment [6] (positive control) came out at 11.62 ± 0.23 µg/mL (≈ 46.4 µM).

(Values after article PMC6918269, “Caucasian Gentiana Species: Untargeted LC-MS Metabolic Profiling, Antioxidant and Digestive Enzyme Inhibiting Activity of Six Plants” (Metabolites, 2019).)
